Reference: the NIST ThermoML archive (doi:10.1021/je7003758)

Experiment: xn = mol fraction of the nth substance listed
Details: 298.15 K, Liquid

ClCCCCCl [1,4-dichlorobutane] + CN1CCCC1=O
mass density [kg/m3]
Details | x2 = 0.1039 | x2 = 0.2034 | x2 = 0.3036 | x2 = 0.402 | x2 = 0.5025 | x2 = 0.5968 | x2 = 0.7003 | x2 = 0.8008 | x2 = 0.8971
100 kPa | 1123.8 | 1114.2 | 1104.3 | 1094.4 | 1084 | 1073.9 | 1062.7 | 1051.4 | 1040.2
500 kPa | 1124.1 | 1114.6 | 1104.6 | 1094.7 | 1084.2 | 1074.2 | 1062.9 | 1051.6 | 1040.4
1000 kPa | 1124.5 | 1114.9 | 1104.9 | 1095 | 1084.5 | 1074.5 | 1063.2 | 1051.9 | 1040.7
1500 kPa | 1124.9 | 1115.2 | 1105.3 | 1095.3 | 1084.8 | 1074.8 | 1063.6 | 1052.2 | 1041
2000 kPa | 1125.2 | 1115.6 | 1105.7 | 1095.7 | 1085.2 | 1075.1 | 1063.8 | 1052.5 | 1041.3
2500 kPa | 1125.5 | 1115.9 | 1106 | 1096 | 1085.5 | 1075.4 | 1064.1 | 1052.8 | 1041.6
2900 kPa | – | – | 1106.3 | – | – | – | – | – | –
3000 kPa | 1125.9 | 1116.3 | – | 1096.3 | 1085.8 | 1075.7 | 1064.4 | 1053 | 1041.8
3500 kPa | 1126.3 | 1116.6 | 1106.6 | 1096.7 | 1086.1 | 1076 | 1064.7 | 1053.4 | 1042.1
4000 kPa | 1126.7 | 1117 | 1107 | 1097 | 1086.4 | 1076.4 | 1065 | 1053.6 | 1042.3
4500 kPa | 1127 | 1117.3 | 1107.4 | 1097.3 | 1086.8 | 1076.6 | 1065.3 | 1053.9 | 1042.7
4900 kPa | 1127.3 | – | – | – | – | 1076.9 | – | – | –
5000 kPa | – | 1117.7 | 1107.7 | 1097.6 | 1087.1 | – | 1065.6 | 1054.2 | 1042.9
5500 kPa | 1127.7 | 1118 | 1108 | 1098 | 1087.4 | 1077.2 | 1065.9 | 1054.4 | 1043.1
5900 kPa | 1128.1 | – | – | – | 1087.7 | – | – | – | –
6000 kPa | – | 1118.4 | 1108.3 | 1098.3 | – | 1077.6 | 1066.2 | 1054.8 | 1043.5
6500 kPa | 1128.4 | 1118.8 | 1108.7 | 1098.6 | 1088 | 1077.8 | 1066.5 | 1055 | 1043.7
7000 kPa | 1128.8 | 1119.1 | 1109 | 1099 | 1088.4 | 1078.2 | 1066.8 | 1055.3 | 1044
7400 kPa | – | – | – | – | – | – | – | – | 1044.2
7500 kPa | – | 1119.5 | 1109.4 | 1099.3 | 1088.6 | 1078.5 | 1067.1 | 1055.6 | –
7600 kPa | 1129.2 | – | – | – | – | – | – | – | –
7900 kPa | – | – | – | – | 1089 | – | – | – | –
8000 kPa | 1129.5 | 1119.8 | 1109.7 | 1099.6 | – | 1078.8 | 1067.4 | 1055.9 | 1044.5
8400 kPa | 1129.8 | – | – | – | – | – | – | – | –
8500 kPa | – | 1120.1 | 1110.1 | 1099.9 | 1089.3 | 1079.1 | 1067.6 | 1056.2 | 1044.8
8900 kPa | 1130.2 | – | – | – | – | – | – | – | –
9000 kPa | – | 1120.5 | 1110.4 | 1100.3 | 1089.6 | 1079.4 | 1068 | 1056.4 | 1045.1
9400 kPa | – | – | – | – | – | – | – | – | 1045.3
9500 kPa | 1130.6 | 1120.8 | 1110.7 | 1100.3 | 1089.9 | 1079.7 | 1068.2 | 1056.7 | –
10000 kPa | 1131 | 1121.3 | 1111.1 | 1101 | 1090.3 | 1080 | 1068.6 | 1057.1 | 1045.6
10500 kPa | 1131.4 | 1121.6 | 1111.4 | 1101.3 | 1090.6 | 1080.3 | 1068.9 | 1057.3 | 1045.9
11000 kPa | 1131.7 | 1122 | 1111.8 | 1101.6 | 1090.9 | 1080.6 | 1069.2 | 1057.6 | 1046.1
11500 kPa | 1132.1 | 1122.3 | 1112.1 | 1101.9 | 1091.2 | 1080.9 | 1069.4 | 1057.9 | 1046.4
11900 kPa | – | – | – | – | – | – | – | – | 1046.6
12000 kPa | 1132.5 | 1122.6 | 1112.4 | 1102.2 | 1091.6 | 1081.2 | 1069.7 | 1058.2 | –
12400 kPa | – | – | – | – | – | – | – | – | 1046.9
12500 kPa | 1132.8 | 1122.9 | 1112.8 | 1102.6 | 1091.9 | 1081.5 | 1070 | 1058.4 | –
12900 kPa | – | – | – | – | 1092.2 | – | – | – | –
13000 kPa | 1133.1 | 1123.3 | 1113.1 | 1102.9 | – | 1081.8 | 1070.3 | 1058.7 | 1047.2
13400 kPa | – | – | – | – | – | – | – | 1059 | –
13500 kPa | 1133.5 | 1123.6 | 1113.4 | 1103.2 | 1092.5 | 1082.1 | 1070.5 | – | 1047.4
13900 kPa | – | – | 1113.7 | – | – | – | – | – | –
14000 kPa | 1133.8 | 1124 | – | 1103.5 | 1092.8 | 1082.4 | 1070.9 | 1059.2 | 1047.7
14400 kPa | – | – | – | – | – | – | 1071.1 | 1059.5 | –
14500 kPa | 1134.2 | 1124.3 | 1114 | 1103.8 | 1093.1 | 1082.6 | – | – | 1048
14900 kPa | – | – | – | – | 1093.3 | – | – | – | –
15000 kPa | 1134.5 | 1124.7 | 1114.4 | 1104.1 | – | 1083 | 1071.5 | 1059.7 | 1048.3
15400 kPa | – | – | – | – | 1093.6 | – | – | – | –
15500 kPa | 1134.8 | 1125 | 1114.7 | 1104.4 | – | 1083.3 | 1071.7 | 1060 | 1048.6
15900 kPa | – | – | – | – | – | – | – | – | 1048.8
16000 kPa | 1135.2 | 1125.3 | 1115.1 | 1104.8 | 1094 | 1083.5 | 1072 | 1060.3 | –
16400 kPa | – | – | – | 1105 | – | – | – | – | –
16500 kPa | 1135.5 | 1125.6 | 1115.4 | – | 1094.2 | 1083.8 | 1072.2 | 1060.6 | 1049
16900 kPa | – | – | 1115.6 | – | – | – | – | – | –
17000 kPa | 1135.9 | 1126 | – | 1105.4 | 1094.5 | 1084.1 | 1072.5 | 1060.8 | 1049.3
17500 kPa | 1136.2 | 1126.3 | 1116 | 1105.7 | 1094.8 | 1084.4 | 1072.8 | 1061.1 | 1049.5
18000 kPa | 1136.5 | 1126.6 | 1116.3 | 1106 | 1095.1 | 1084.7 | 1073.1 | 1061.3 | 1049.8
18500 kPa | 1136.9 | 1126.9 | 1116.6 | 1106.2 | 1095.4 | 1085 | 1073.3 | 1061.6 | 1050.1
19000 kPa | 1137.3 | 1127.3 | 1117 | 1106.6 | 1095.8 | 1085.3 | 1073.7 | 1061.9 | 1050.3
19500 kPa | 1137.6 | 1127.6 | 1117.3 | 1106.9 | 1096 | 1085.6 | 1074 | 1062.2 | 1050.6
20000 kPa | 1138 | 1128 | 1117.7 | 1107.4 | 1096.5 | 1086 | 1074.5 | 1062.4 | 1050.9
